Test system: 70% normal and 30% senescent human dermal fibroblasts
Test: Senolytic activity study (SA-beta-galactosidase, flow cytometry)
Format: cell-based
Conditions: 1.5 μM, 72 hours
Protocol: Normal and senescent cell populations were obtained from normal human dermal fibroblasts. For the normal cell population, the cells were seeded in cell culture medium (Dulbecco's Modified Eagle Medium supplemented with 10% serum and 1% antibiotics) and allowed to adhere and proliferate in a humidified cell incubator maintaining 37° C. and 5% CO2. These were then passaged or collected when 90% confluent. For the senescent cell population, the normal fibroblast cells were at this stage shortly exposed to 200 μM H2O2 followed by normal cell culture medium. Several days later, the cells were treated again with H2O2 to obtain a fully senescent population. Both normal and senescent populations were mixed into a 70% normal and 30% senescent cell population and represented the treatment population. Afterward, the 70% normal and 30% senescent cell population were seeded in cell culture medium and allowed to adhere in the cell incubator. […] Afterward, senescence-associated beta-galactosidase was visualized—a well-known senescence marker—in the cells to quantify the senescence levels using flow cytometry. […] Data are normalized to the untreated control (30% senescent cells and 70% normal cells) and expressed as the mean±SD (n=4).

Structure (SMILES): CC1(C)CCC(c2ccc(Cl)cc2)=C(CN2CCN(c3ccc(C(=O)NS(=O)(=O)c4ccc(N[C@H](CCN5CCOCC5)CSc5ccccc5)c(S(=O)(=O)C(F)(F)F)c4)cc3)CC2)C1 [Navitoclax]
- Senescent cells (%) (70% normal/30% senescent mix, normalized to untreated control (30%), mean, n=4): 10%
- Significant senolytic effect (versus CTRL): Yes

Reference: patent US20260216054A1, “COMPOSITIONS COMPRISING EPILOBIUM FLEISCHERI EXTRACT FOR TREATING SIGNS OF AGING” (DSM IP Assets B.V., priority 2023, published 2026)
